Laboratory results from patent publication US8895585B2, “Nicotinamide derivative or salt thereof” (FUJIFILM Corporation, priority 2010, dated 2014).
Read-outs that look alike come from different tables or passages of the source.

Tests used:
[1] = test system: THP-1 cells; test: TNFα generation assay; format: cell-based, human
Summary of the method: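 Secreted TNFα in supernatant quantified by ELISA or AlphaLISA after 7 h culture on human IgG-coated wells (10 μg/ml coating). Cells were IFN-γ-differentiated THP-1 (10 ng/ml, 2 days), exposed to compound for 30 min at room temperature before plating.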

[2] = biological target: T1, glutathione S-transferase (GST)-fused full-length human Syk protein (Homo sapiens, UniProt P43405); test: Syk enzyme assay; format: biochemical
T1 construct: (GST)-fused full-length human Syk protein; GST (glutathione S-transferase); purchased Carna Biosciences
Summary of the method: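 GST-tagged full-length human Syk (baculovirus) preincubated with compound 15 min at room temperature (pH 7.0, 10 mM MgCl2), then reacted 40 min with 0.4 μM biotinylated peptide substrate and 27 μM ATP (final). Phosphorylation read by HTRF (615/665 nm) after EDTA stop; IC50 reported.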

[3] = Homo sapiens, THP-1, THP-1 cells, Table 22, read-out: IC50 in TNFα generation assay
[4] = Syk enzyme assay, Test Example 1, read-out: IC50 of Syk-inhibitory activity
[5] = THP-1 cells, Table 22, read-out: IC50 in TNFα generation assay

Compound | IC50 ([1]; Homo sapiens, THP-1, 7 h, IFN-γ-differentiated THP-1 cells on human IgG-coated plate, cultured 7 hours, read-out: TNFα generation inhibitory activity (IC50)) [nM] | IC50 ([2]; read-out: Syk-inhibitory activity (IC50)) [nM] | IC50 [1, 3] [nM] | IC50 [2, 4] [nM] | IC50 [1, 5] [nM]
NCCNc1nc(Nc2ccc3ncccc3c2)c(C(N)=O)cc1F [Example 6-26, 6-((2-aminoethyl)amino)-5-fluoro-2-(quinolin-6-ylamino)nicotinamide] | ≤ 200 | ≤ 1000 | – | – | –
C[C@H](N)CNc1nc(Nc2cnc3ccccc3c2)c(C(N)=O)cc1F [Example 006-092, (S)-6-((2-aminopropyl)amino)-5-fluoro-2-((quinolin-3-yl)amino)nicotinamide] | – | – | < 65 | < 10 | –
COc1cc(Nc2nc(NC[C@H](C)N)c(F)cc2C(N)=O)cc(OC)c1 [Example 006-093, (S)-6-((2-aminopropyl)amino)-2-(3,5-dimethoxyphenylamino)-5-fluoronicotinamide] | – | – | < 65 | < 10 | –
Cc1cncc(Nc2nc(NC[C@H](C)N)c(F)cc2C(N)=O)c1 [Example 006-094, (S)-6-((2-aminopropyl)amino)-5-fluoro-2-((5-methylpyridin-3-yl)amino)nicotinamide] | – | – | 65 to 130 | 10 to 50 | –
COc1cc(Nc2nc(NC[C@H](C)N)c(F)cc2C(N)=O)ccn1 [Example 006-096, (S)-6-((2-aminopropyl)amino)-5-fluoro-2-((2-methoxypyridin-4-yl)amino)nicotinamide] | – | – | < 65 | 10 to 50 | –
C[C@H](N)CNc1nc(Nc2cccc(-n3nccn3)c2)c(C(N)=O)cc1F [Example 006-097, (S)-2-((3-(2H-1,2,3-triazol-2-yl)phenyl)amino)-6-((2-aminopropyl)amino)-5-fluoronicotinamide] | – | – | < 65 | < 10 | –
Cc1cccc(Nc2nc(NC[C@H](C)N)c(F)cc2C(N)=O)c1 [Example 006-099] | – | – | < 65 | 10 to 50 | –
COc1cc(Nc2nc(N[C@H](C)CN)c(F)cc2C(N)=O)cc(OC)c1 [Example 006-100, (R)-6-((1-aminopopan-2-yl)amino)-2-((3,5-dimethoxyphenyl)amino)-5-fluoronicotinamide] | – | – | 65 to 130 | < 10 | –
Cc1cncc(Nc2nc(N[C@H](C)CN)c(F)cc2C(N)=O)c1 [Example 006-101, (R)-6-((1-aminopropan-2-yl)amino)-5-fluoro-2-((5-methylpyridin-3-yl)amino)nicotinamide] | – | – | 65 to 130 | 10 to 50 | –
C[C@H](CN)Nc1nc(Nc2ccc3c(cnn3C)c2)c(C(N)=O)cc1F [Example 006-102, (R)-6-((1-aminopropan-2-yl)amino)-5-fluoro-2-((1-methyl-1H-indazol-5-yl)amino)nicotinamide] | – | – | 65 to 130 | 10 to 50 | –
Cc1cncc(Nc2nc(N[C@@H]3CCCC[C@@H]3N)c(F)cc2C(N)=O)c1 [Example 006-103, 6-(((1R,2S)-2-aminocyclohexyl)amino)-5-fluoro-2-((5-methylpyridin-3-yl)amino)nicotinamide] | – | – | < 65 | < 10 | –
Cc1ccc(Nc2nc(N[C@@H]3CCCC[C@@H]3N)c(F)cc2C(N)=O)cn1 [Example 006-104, 6-(((1R,2S)-2-aminocyclohexyl)amino)-5-fluoro-2-((6-methylpyridin-3-yl)amino)nicotinamide] | – | – | 65 to 130 | < 10 | –
Cc1cncc(Nc2nc(N[C@H](C)[C@H](C)N)c(F)cc2C(N)=O)c1 [Example 006-108] | – | – | – | 10 to 50 | 65 to 130
C[C@H](N)[C@@H](C)Nc1nc(Nc2cccc3ncccc23)c(C(N)=O)cc1F [Example 006-110] | – | – | – | < 10 | 65 to 130
NC(=O)c1cc(F)c(N[C@@H]2CCCC[C@@H]2N)nc1Nc1cncc(-c2ccccc2)c1 [Example 006-113, 6-(((1R,2S)-2-aminocyclohexyl)amino)-5-fluoro-2-((5-phenylpyridin-3-yl)amino)nicotinamide] | – | – | < 65 | < 10 | –
COc1cc(Nc2nc(N[C@@H]3CCCC[C@@H]3N)c(F)cc2C(N)=O)cc(OC)n1 [Example 006-114, 6-(((1R,2S)-2-aminocyclohexyl)amino)-2-((2,6-dimethoxypyridin-4-yl)amino)-5-fluoronicotinamide] | – | – | 65 to 130 | < 10 | –

The remaining lines, values ahead:

IC50 ([1]; Homo sapiens, THP-1, 7 h, IFN-γ-differentiated THP-1 cells on human IgG-coated plate, cultured 7 hours, read-out: TNFα generation inhibitory activity (IC50)) [nM] | IC50 ([2]; read-out: Syk-inhibitory activity (IC50)) [nM] | IC50 [1, 3] [nM] | IC50 [2, 4] [nM] | IC50 [1, 5] [nM] | Compound
– | – | 130 to 200 | 10 to 50 | – | Cn1ncc2cc(Nc3nc(NC[C@@H](N)c4ccccc4)c(F)cc3C(N)=O)ccc21 [Example 006-119, (S)-6-((2-amino-2-phenylethyl)amino)-5-fluoro-2-((1-methyl-1H-indazol-5-yl)amino)nicotinamide]
– | – | 130 to 200 | < 10 | – | NC[C@H](Nc1nc(Nc2cccc(-n3nccn3)c2)c(C(N)=O)cc1F)c1ccccc1 [Example 006-132, (R)-2-((3-(2H-1,2,3-triazol-2-yl)phenyl)amino)-6-((2-amino-1-phenylethyl)amino)-5-fluoronicotinamide]
– | – | 130 to 200 | 10 to 50 | – | COc1cc(Nc2nc(N[C@@H](CN)c3ccccc3)c(F)cc2C(N)=O)ccn1 [Example 006-133, (R)-6-((2-amino-1-phenylethyl)amino)-5-fluoro-2-((2-methoxypyridin-4-yl)amino)nicotinamide]
– | – | < 65 | < 10 | – | CC(C)C[C@H](CN)Nc1nc(Nc2ccc3c(cnn3C)c2)c(C(N)=O)cc1F [Example 006-142, (R)-6-((1-amino-4-methylpentan-2-yl)amino)-5-fluoro-2-((1-methyl-1H-indazol-5-yl)amino)nicotinamide]
– | – | 130 to 200 | < 10 | – | CC(C)C[C@H](CN)Nc1nc(Nc2ccnc(-n3ccnn3)c2)c(C(N)=O)cc1F [Example 006-143, (R)-2-((2-(1H-1,2,3-triazol-1-yl)pyridin-4-yl)amino)-6-((1-amino-4-methylpentan-2-yl)amino)-5-fluoronicotinamide]
– | – | 65 to 130 | < 10 | – | CC(C)C[C@H](CN)Nc1nc(Nc2cncc(C3CC3)c2)c(C(N)=O)cc1F [Example 006-144, (R)-6-((1-amino-4-methylpentan-2-yl)amino)-2-((5-cyclopropylpyridin-3-yl)amino)-5-fluoronicotinamide]
– | – | 65 to 130 | < 10 | – | CCOc1cc(Nc2nc(N[C@@H](CN)CC(C)C)c(F)cc2C(N)=O)ccn1 [Example 006-145, (R)-6-((1-amino-4-methylpentan-2-yl)amino)-2-((2-ethoxypyridin-4-yl)amino)-5-fluoronicotinamide]
– | – | – | < 10 | < 65 | NC(=O)c1cc(F)c(N[C@@H]2CCCC[C@@H]2N)nc1Nc1ccnc(-n2nccn2)c1 [Example 006-146, 2-((2-(2H-1,2,3-triazol-2-yl)pyridin-4-yl)amino)-6-(((1R,2S)-2-aminocyclohexyl)amino)-5-fluoronicotinamide]
– | – | 130 to 200 | < 10 | – | CC(C)C[C@H](CN)Nc1nc(Nc2ccc3scnc3c2)c(C(N)=O)cc1F [Example 006-147, (R)-6-((1-amino-4-methylpentan-2-yl)amino)-2-(benzo[d]thiazol-5-ylamino)-5-fluoronicotinamide]
– | – | 130 to 200 | < 10 | – | Cc1cnc2cc(Nc3nc(N[C@@H](CN)CC(C)C)c(F)cc3C(N)=O)ccc2n1 [Example 006-148, (R)-6-((1-amino-4-methylpentan-2-yl)amino)-5-fluoro-2-((2-methylquinoxalin-6-yl)amino)nicotinamide]
– | – | < 65 | < 10 | – | CC(C)C[C@H](CN)Nc1nc(Nc2ccnc(-n3cncn3)c2)c(C(N)=O)cc1F [Example 006-153, (R)-2-((2-(1H-1,2,4-triazol-1-yl)pyridin-4-yl)amino)-6-((1-amino-4-methylpentan-2-yl)amino)-5-fluoronicotinamide]
– | – | 65 to 130 | < 10 | – | CC(C)C[C@H](CN)Nc1nc(Nc2ccnc(-n3nccn3)c2)c(C(N)=O)cc1F [Example 006-154, (R)-2-((2-(2H-1,2,3-triazol-2-yl)pyridin-4-yl)amino)-6-((1-amino-4-methylpentan-2-yl)amino)-5-fluoronicotinamide]
– | – | 65 to 130 | < 10 | – | CC(C)C[C@H](CN)Nc1nc(Nc2ccnc(-c3ccoc3)c2)c(C(N)=O)cc1F [Example 006-155, (R)-6-((1-amino-4-methylpentan-2-yl)amino)-5-fluoro-2-((2-(furan-3-yl)pyridin-4-yl)amino)nicotinamide]
– | – | 130 to 200 | < 10 | – | COc1cc(Nc2nc(N[C@@H](CN)CC(C)C)c(F)cc2C(N)=O)cc(OC)n1 [Example 006-156, (R)-6-((1-amino-4-methylpentan-2-yl)amino)-2-((2,6-dimethoxypyridin-4-yl)amino)-5-fluoronicotinamide]
– | – | 130 to 200 | < 10 | – | CC(C)CC(Nc1nc(Nc2ccc3ncccc3c2)c(C(N)=O)cc1F)[C@H](C)N (stereo partly drawn) [Example 006-159, 6-(((2S)-2-amino-5-methylhexan-3-yl)amino)-5-fluoro-2-(quinolin-6-ylamino)nicotinamide]
– | – | 65 to 130 | < 10 | – | CC(C)[C@H](CN)Nc1nc(Nc2ccc3ncccc3c2)c(C(N)=O)cc1F [Example 006-160, (R)-6-((1-amino-3-methylbutan-2-yl)amino)-5-fluoro-2-(quinolin-6-ylamino)nicotinamide]
– | – | < 65 | < 10 | – | CCC[C@H](CN)Nc1nc(Nc2ccc3ncccc3c2)c(C(N)=O)cc1F [Example 006-161, (R)-6-((1-aminopentan-2-yl)amino)-5-fluoro-2-(quinolin-6-ylamino)nicotinamide]
